Test results: ChEMBL document CHEMBL1909046, “DrugMatrix in vitro pharmacology data”

Legend:
[1] = molecular target: Beta-2 adrenergic receptor (Homo sapiens, UniProt P07550); test: DRUGMATRIX: Adrenergic beta2 radioligand binding (ligand: [3H] CGP-12177); type: cell membranes, Membrane; details: cho; Not Active = under 50% inhibition at 10 µM
[2] = molecular target: Nitric oxide synthase 1 (Rattus norvegicus, UniProt P29476); type: tissue-based, Cerebellum; note: in other assays of this panel Not Active means under 50% inhibition at 10 µM
Chain of Nitric oxide synthase 1 (P29476 whole entry): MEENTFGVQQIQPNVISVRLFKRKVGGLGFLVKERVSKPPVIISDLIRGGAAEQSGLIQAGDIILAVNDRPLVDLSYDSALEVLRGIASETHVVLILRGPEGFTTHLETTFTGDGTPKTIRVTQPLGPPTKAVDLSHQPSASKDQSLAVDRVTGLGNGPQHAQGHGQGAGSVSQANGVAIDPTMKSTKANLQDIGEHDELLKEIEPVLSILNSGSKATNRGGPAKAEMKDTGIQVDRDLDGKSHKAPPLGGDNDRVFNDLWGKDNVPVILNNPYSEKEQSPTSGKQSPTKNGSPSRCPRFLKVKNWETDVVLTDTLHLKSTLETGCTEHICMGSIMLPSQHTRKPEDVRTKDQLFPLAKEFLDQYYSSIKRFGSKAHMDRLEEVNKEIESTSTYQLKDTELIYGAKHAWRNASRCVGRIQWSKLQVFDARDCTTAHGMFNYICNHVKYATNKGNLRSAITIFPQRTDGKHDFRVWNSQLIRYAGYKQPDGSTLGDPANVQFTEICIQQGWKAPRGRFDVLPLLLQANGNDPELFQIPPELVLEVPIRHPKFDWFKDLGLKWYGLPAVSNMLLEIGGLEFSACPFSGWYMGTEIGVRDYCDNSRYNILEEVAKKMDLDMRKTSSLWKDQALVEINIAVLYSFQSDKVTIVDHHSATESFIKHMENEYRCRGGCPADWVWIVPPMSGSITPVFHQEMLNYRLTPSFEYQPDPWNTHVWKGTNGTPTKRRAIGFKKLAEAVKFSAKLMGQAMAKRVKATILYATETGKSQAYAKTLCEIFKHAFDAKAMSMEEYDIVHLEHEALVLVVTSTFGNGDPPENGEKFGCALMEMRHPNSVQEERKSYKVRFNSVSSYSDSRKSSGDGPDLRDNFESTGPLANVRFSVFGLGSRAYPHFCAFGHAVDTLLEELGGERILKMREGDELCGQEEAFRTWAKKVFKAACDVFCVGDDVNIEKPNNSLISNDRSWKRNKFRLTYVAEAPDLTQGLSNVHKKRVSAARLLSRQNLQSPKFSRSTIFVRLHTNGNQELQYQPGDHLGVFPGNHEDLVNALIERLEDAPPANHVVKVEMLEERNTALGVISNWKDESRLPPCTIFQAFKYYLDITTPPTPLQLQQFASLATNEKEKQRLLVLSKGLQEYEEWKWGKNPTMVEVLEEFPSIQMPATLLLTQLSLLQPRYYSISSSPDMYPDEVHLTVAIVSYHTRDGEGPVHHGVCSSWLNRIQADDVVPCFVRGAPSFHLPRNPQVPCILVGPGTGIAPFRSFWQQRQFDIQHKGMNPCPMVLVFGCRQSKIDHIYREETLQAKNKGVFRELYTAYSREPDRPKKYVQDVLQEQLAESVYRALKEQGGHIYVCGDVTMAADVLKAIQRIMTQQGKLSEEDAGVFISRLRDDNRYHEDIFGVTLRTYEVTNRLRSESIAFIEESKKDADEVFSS

[3] = molecular target: Voltage-gated inwardly rectifying potassium channel KCNH2 (Homo sapiens, UniProt Q12809); details: hek293; note: in other assays of this panel Not Active means under 50% inhibition at 10 µM
Chain of Voltage-gated inwardly rectifying potassium channel KCNH2 (Q12809 whole entry): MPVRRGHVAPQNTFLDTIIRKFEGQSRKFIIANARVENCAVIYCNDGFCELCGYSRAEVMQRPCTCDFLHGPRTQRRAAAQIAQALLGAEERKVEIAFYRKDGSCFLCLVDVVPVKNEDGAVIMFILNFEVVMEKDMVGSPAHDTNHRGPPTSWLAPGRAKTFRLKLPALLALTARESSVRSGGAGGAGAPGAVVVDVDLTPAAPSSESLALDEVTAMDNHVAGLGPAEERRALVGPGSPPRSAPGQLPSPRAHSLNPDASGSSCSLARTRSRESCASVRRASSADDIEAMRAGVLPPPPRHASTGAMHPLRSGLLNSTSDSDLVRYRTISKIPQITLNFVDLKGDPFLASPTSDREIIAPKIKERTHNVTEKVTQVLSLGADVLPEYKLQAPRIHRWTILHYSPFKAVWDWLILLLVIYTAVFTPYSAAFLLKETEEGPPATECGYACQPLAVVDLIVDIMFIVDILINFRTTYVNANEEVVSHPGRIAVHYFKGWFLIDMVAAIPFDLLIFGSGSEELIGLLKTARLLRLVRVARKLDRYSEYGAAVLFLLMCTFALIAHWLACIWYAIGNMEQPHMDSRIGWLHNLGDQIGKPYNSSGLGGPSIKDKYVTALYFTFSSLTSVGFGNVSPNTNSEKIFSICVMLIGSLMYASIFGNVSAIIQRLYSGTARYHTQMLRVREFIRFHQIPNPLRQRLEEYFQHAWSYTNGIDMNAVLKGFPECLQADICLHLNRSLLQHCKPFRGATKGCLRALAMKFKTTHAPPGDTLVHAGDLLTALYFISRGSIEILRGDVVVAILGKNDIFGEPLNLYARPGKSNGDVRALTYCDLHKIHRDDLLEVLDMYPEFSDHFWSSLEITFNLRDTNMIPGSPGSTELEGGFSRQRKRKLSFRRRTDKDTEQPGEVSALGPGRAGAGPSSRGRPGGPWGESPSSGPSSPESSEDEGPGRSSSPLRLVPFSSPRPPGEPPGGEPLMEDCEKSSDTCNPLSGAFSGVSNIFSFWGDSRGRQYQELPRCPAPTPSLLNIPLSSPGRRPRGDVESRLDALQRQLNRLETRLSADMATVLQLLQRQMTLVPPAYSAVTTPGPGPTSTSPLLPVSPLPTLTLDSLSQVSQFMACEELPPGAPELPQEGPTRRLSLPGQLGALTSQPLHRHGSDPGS

[4] = DRUGMATRIX: Imidazoline I2, Central radioligand binding (ligand: [3H] Idazoxan); type: cell membranes, Rattus norvegicus, Wistar, Cerebral cortex, Membrane; details: Not Active = under 50% inhibition at 10 µM
[5] = DRUGMATRIX: Potassium Channel [KATP] radioligand binding (ligand: [3H] Glyburide); type: cell membranes, Membrane; details: hit-t15; Not Active = under 50% inhibition at 10 µM
[6] = molecular target: Insulin receptor (Rattus norvegicus, UniProt P15127); type: cell membranes, Wistar, Liver, Membrane; note: in other assays of this panel Not Active means under 50% inhibition at 10 µM
Chain of Insulin receptor (P15127 27-759 limits assumed): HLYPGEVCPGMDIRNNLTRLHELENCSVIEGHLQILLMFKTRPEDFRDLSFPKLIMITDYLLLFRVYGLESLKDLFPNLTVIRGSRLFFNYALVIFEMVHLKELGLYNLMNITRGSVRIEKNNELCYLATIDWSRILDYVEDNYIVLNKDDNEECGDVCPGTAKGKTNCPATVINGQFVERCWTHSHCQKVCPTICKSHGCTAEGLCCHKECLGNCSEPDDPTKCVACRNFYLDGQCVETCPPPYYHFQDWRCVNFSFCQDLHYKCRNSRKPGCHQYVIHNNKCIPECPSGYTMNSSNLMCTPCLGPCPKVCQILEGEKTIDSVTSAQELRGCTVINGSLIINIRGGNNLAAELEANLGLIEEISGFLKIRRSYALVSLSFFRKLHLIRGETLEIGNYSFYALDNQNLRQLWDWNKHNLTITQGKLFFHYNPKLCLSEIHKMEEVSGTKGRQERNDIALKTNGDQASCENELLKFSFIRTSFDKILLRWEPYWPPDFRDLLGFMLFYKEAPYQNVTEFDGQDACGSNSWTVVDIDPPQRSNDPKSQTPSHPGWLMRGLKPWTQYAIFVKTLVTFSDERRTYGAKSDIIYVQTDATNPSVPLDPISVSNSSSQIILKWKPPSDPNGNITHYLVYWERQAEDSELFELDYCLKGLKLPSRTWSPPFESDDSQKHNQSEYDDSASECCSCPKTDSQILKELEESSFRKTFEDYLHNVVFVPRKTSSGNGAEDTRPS
Chain of Insulin receptor (P15127 764-1383 limits assumed): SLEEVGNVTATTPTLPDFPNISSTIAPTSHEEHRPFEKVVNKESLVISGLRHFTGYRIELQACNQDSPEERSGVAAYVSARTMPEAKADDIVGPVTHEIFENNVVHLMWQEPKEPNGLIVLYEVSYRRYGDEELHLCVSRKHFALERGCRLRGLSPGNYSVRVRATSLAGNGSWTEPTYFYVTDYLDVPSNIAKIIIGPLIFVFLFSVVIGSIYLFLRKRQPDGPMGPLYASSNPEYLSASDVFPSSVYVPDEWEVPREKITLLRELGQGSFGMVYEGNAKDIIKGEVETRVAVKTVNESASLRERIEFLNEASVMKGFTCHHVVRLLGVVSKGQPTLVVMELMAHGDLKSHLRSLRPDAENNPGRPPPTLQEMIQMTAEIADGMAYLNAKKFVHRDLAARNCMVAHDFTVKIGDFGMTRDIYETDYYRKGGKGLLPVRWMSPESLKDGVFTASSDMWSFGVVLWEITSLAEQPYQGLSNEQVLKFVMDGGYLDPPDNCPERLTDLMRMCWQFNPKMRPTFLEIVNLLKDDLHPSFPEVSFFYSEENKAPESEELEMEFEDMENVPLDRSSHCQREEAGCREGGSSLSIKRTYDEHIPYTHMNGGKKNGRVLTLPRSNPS

[7] = molecular target: C-C chemokine receptor type 5 (Homo sapiens, UniProt P51681); type: cell membranes, HEK293, Membrane; details: hek293; note: in other assays of this panel Not Active means under 50% inhibition at 10 µM
Chain of C-C chemokine receptor type 5 (P51681 whole entry): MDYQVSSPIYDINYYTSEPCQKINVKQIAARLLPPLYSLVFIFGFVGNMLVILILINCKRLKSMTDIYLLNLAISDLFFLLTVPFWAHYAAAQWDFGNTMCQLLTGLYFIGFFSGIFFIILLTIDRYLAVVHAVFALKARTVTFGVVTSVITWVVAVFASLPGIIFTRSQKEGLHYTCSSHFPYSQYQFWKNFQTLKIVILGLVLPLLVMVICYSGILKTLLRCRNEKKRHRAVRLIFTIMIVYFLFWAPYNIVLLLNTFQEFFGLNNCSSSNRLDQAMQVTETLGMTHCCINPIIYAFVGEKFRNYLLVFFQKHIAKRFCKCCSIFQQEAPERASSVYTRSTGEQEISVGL

[8] = DRUGMATRIX: Sigma2 radioligand binding (ligand: [3H] Ifenprodil); type: cell membranes, Rattus norvegicus, Wistar, Brain, Membrane; details: Not Active = under 50% inhibition at 10 µM

Row | Molecule | IC50 [1] | IC50 [2] | IC50 [3] | Ki [3] | IC50 [4] | Ki [4] | IC50 [5] | Ki [5] | IC50 [6] | IC50 [7] | IC50 [8] | Ki [8] | IC50 ([8]; read-out: IC50) [µM] | Ki ([8]; read-out: Ki) [µM] | Ki [1] | Ki [2] | Ki [6] | Ki [7]
1 | COc1ccc2[nH]c([S+]([O-])Cc3ncc(C)c(OC)c3C)nc2c1 (stereo not drawn) [OMEPRAZOLE] | Not Active | Not Active | Not Active | Not Active | Not Active | Not Active | Not Active | Not Active | Not Active | Not Active | Not Active | Not Active | – | – | – | – | – | –
2 | Cc1nccn1CC1CCc2c(c3ccccc3n2C)C1=O (stereo not drawn) [ONDANSETRON] | Not Active | Not Active | Not Active | Not Active | Not Active | Not Active | Not Active | Not Active | Not Active | Not Active | Not Active | Not Active | – | – | – | – | – | –
3 | CCCCOc1ccc(OCCCN2CCOCC2)cc1 [PRAMOXINE] | Not Active | Not Active | Not Active | Not Active | Not Active | Not Active | Not Active | Not Active | Not Active | Not Active | – | – | 1.03 | 0.633 | – | – | – | –
4 | O=C(C1CCCCC1)N1CC(=O)N2CCc3ccccc3C2C1 (stereo not drawn) [PRAZIQUANTEL] | Not Active | Not Active | Not Active | Not Active | Not Active | Not Active | Not Active | Not Active | Not Active | Not Active | Not Active | Not Active | – | – | – | – | – | –
5 | CCN(CC)CCOC(=O)c1ccc(N)cc1 [PROCAINE] | Not Active | Not Active | Not Active | Not Active | Not Active | Not Active | Not Active | Not Active | Not Active | Not Active | Not Active | Not Active | – | – | – | – | – | –
6 | CCCN(CCC)C(=O)C(CCC(=O)O)NC(=O)c1ccccc1 (stereo not drawn) [PROGLUMIDE] | Not Active | Not Active | Not Active | Not Active | Not Active | Not Active | Not Active | Not Active | Not Active | Not Active | Not Active | Not Active | – | – | – | – | – | –
7 | NC(=O)c1cnccn1 [PYRAZINAMIDE] | Not Active | Not Active | Not Active | Not Active | Not Active | Not Active | Not Active | Not Active | Not Active | Not Active | Not Active | Not Active | – | – | – | – | – | –
8 | OC(CCN1CCCCC1)(c1ccccc1)C1CCCCC1 (stereo not drawn) [TRIHEXYPHENIDYL] | Not Active | Not Active | Not Active | Not Active | Not Active | Not Active | Not Active | Not Active | Not Active | Not Active | – | – | 3.12 | 1.92 | – | – | – | –
9 | Cc1cc2cc3c(C)cc(=O)oc3c(C)c2o1 [TRIOXSALEN] | Not Active | Not Active | Not Active | Not Active | Not Active | Not Active | Not Active | Not Active | Not Active | Not Active | Not Active | Not Active | – | – | – | – | – | –
10 | CCCC(CCC)C(=O)O [VALPROIC ACID] | Not Active | Not Active | Not Active | Not Active | Not Active | Not Active | Not Active | Not Active | Not Active | Not Active | Not Active | Not Active | – | – | – | – | – | –
11 | CCC1=C[C@@H]2CN(C1)Cc1c([nH]c3ccccc13)[C@@](C(=O)OC)(c1cc3c(cc1OC)N(C)[C@H]1[C@@](O)(C(=O)OC)[C@H](OC(C)=O)[C@]4(CC)C=CCN5CC[C@]31[C@@H]54)C2 [VINORELBINE] | Not Active | Not Active | Not Active | Not Active | Not Active | Not Active | Not Active | Not Active | Not Active | Not Active | Not Active | Not Active | – | – | – | – | – | –
12 | CADMIUM DICHLORIDE | Not Active | Not Active | Not Active | Not Active | Not Active | Not Active | Not Active | Not Active | Not Active | Not Active | Not Active | Not Active | – | – | Not Active | Not Active | Not Active | Not Active
